From ChEMBL document CHEMBL1649484, “AbaR5, a large multiple-antibiotic resistance region found in Acinetobacter baumannii” (2009)
In brackets after ≈: the same amount, converted by molar mass.

Tests used:
Format in all cases: functional
[1] = tested on: Acinetobacter baumannii; assay: Antimicrobial activity against Acinetobacter baumannii 3208 expressing multiple-antibiotic resistance gene AbaR5 by […] 2 system
[2] = tested on: Acinetobacter baumannii; assay: Antimicrobial activity against Acinetobacter baumannii 3208 expressing multiple-antibiotic resistance gene AbaR5 by […] 2 system in presence of beta-lactamase inhibitor Tazobactam
[3] = tested on: Acinetobacter baumannii; assay: Antimicrobial activity against Acinetobacter baumannii 3208 expressing multiple-antibiotic resistance gene AbaR5 by […] 2 system in presence of beta-lactamase inhibitor clavulanic acid

| Molecule | MIC [1] [µg/mL] | further results |
| --- | --- | --- |
| O=C(O)c1cn(C2CC2)c2cc(N3CCNCC3)c(F)cc2c1=O [CIPROFLOXACIN] | ≥ 4 |  |
| C[C@@H](O)[C@H]1C(=O)N2C(C(=O)O)=C(S[C@@H]3CN[C@H](C(=O)N(C)C)C3)[C@H](C)[C@H]12 [MEROPENEM] | 0.5 (≈ 1.3 µM) |  |
| CCN1CCN(C(=O)N[C@@H](C(=O)N[C@@H]2C(=O)N3[C@@H]2SC(C)(C)[C@@H]3C(=O)O)c2ccccc2)C(=O)C1=O [PIPERACILLIN] |  | MIC [2]: ≤ 4 µg/mL |
| CC1(C)S[C@@H]2[C@H](NC(=O)[C@H](C(=O)O)c3ccsc3)C(=O)N2[C@H]1C(=O)O [TICARCILLIN] |  | MIC [3]: 32 µg/mL |
| GENTAMICIN | > 16 |  |
| NC[C@H]1O[C@H](O[C@H]2[C@H](O)[C@@H](O[C@H]3O[C@H](CO)[C@@H](O)[C@H](N)[C@H]3O)[C@H](N)C[C@@H]2N)[C@H](N)C[C@@H]1O [TOBRAMYCIN] | ≤ 1 |  |
| CO/N=C(\C(=O)N[C@@H]1C(=O)N2C(C(=O)[O-])=C(C[N+]3(C)CCCC3)CS[C@H]12)c1csc(N)n1 [CEFEPIME] | 16 (≈ 33.3 µM) |  |
